In patent publication US20190343860A1 (Saint Louis University, priority 2016, published 2019):
Where two headings read alike, the source gives them in different places.

Key:
hA2AAR [1] = molecular target: T1, hA2AAR (Homo sapiens, UniProt P29274); details: species h; inhibition of binding at 10 μM; tested in ref 26; cited from earlier work
T1 construct: expressed in transfected cells

mA2AAR = molecular target: T2, mA2AAR (Mus musculus, UniProt Q60613); experiment: Radioligand binding, membranes of HEK293 cells stably expressing mA2AAR; details: species m; inhibition of binding at 10 μM
T2 construct: expressed in transfected cells

hA1AR [2] = molecular target: T3, hA1AR (Homo sapiens, UniProt P30542); details: species h; inhibition of binding at 10 μM; tested in ref 26; cited from earlier work
T3 construct: expressed in transfected cells
T3 sequence (P30542 1-326): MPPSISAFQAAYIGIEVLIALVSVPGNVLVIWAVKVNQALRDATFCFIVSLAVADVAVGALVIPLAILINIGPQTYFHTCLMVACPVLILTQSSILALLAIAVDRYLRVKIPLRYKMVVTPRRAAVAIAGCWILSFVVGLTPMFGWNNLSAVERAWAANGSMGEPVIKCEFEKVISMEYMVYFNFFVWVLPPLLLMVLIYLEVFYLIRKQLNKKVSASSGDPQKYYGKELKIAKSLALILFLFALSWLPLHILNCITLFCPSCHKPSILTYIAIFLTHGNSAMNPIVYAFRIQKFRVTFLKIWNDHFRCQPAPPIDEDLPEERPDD

hA3AR = molecular target: T4, hA3AR (Homo sapiens, UniProt P0DMS8); experiment: cAMP assay, inhibition of forskolin-stimulated cAMP in hA3AR-transfected CHO cells; assay type: cell-based; details: species h; percentage of maximal effect of 5′-N-ethylcarboxamidoadenosine 43, each at 10 μM
T4 construct: expressed in transfected cells
T4 sequence (P0DMS8 1-318): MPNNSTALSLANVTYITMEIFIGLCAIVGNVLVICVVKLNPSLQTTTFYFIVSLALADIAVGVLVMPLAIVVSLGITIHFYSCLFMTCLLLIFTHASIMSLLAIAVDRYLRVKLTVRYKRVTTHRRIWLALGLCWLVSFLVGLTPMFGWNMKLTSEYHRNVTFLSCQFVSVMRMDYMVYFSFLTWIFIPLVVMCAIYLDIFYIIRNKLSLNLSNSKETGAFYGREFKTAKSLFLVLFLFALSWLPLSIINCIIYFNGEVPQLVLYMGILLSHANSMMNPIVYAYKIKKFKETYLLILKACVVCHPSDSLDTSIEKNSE

mA1AR = molecular target: T5, mA1AR (Mus musculus, UniProt Q60612); experiment: Radioligand binding, membranes of HEK293 cells stably expressing mA1AR; details: species m; inhibition of binding at 10 μM
T5 construct: expressed in transfected cells
T5 sequence (Q60612 1-326): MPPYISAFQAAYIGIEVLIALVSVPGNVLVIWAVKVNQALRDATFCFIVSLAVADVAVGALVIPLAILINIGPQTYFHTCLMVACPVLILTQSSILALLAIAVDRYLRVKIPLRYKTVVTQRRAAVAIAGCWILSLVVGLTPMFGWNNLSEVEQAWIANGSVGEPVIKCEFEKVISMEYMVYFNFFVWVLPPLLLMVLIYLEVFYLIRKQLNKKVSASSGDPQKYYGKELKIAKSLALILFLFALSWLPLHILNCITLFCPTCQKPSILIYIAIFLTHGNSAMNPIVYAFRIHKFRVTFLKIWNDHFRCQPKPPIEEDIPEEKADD

hA1AR [3] = molecular target: T3, hA1AR; experiment: Radioligand binding, membranes of CHO cells stably expressing hA1AR; details: species h; inhibition of binding at 10 μM
hA2AAR [4] = molecular target: T1, hA2AAR; experiment: Radioligand binding, membranes of HEK293 cells stably expressing hA2AAR; details: species h; inhibition of binding at 10 μM
mA3AR [5] = molecular target: T6, mA3AR (Mus musculus, UniProt Q61618); experiment: cAMP assay, inhibition of forskolin-stimulated cAMP in mAR-transfected HEK cells; assay type: cell-based; details: species m; percentage of maximal effect of 1a, from concentration-effect curves
T6 construct: expressed in transfected cells
T6 sequence (Q61618 1-319): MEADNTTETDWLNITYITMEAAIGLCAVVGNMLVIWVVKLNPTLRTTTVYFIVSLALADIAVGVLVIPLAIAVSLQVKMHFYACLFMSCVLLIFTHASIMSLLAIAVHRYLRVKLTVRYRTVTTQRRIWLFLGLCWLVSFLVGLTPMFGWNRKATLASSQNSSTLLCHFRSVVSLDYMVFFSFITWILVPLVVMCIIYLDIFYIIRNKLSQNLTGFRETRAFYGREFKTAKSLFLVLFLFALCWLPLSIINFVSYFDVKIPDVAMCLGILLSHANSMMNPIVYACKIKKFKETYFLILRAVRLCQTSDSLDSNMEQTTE

[6] = system: intraepidermal nerve fibers (IENFs); experiment: Incidence of intraepidermal nerve fibers (IENFs) in chemotherapy-treated rats; details: chemotherapeutic alone; p<0.05 vs. Naive
[7] = Oxaliplatin-induced mechano-hypersensitivity (paw withdrawal threshold, von Frey); assay type: in vivo, rat; details: oxaliplatin 5 days, 10 mg/kg cumulative dose
Description: Mean±SEM, n=6/group, ANOVA with Bonferroni comparisons. *P<0.05 vs. day 0; #P<0.05 vs. vehicle &†P<0.05 vs. Oxaliplatin.

[8] = system: PNSA mitochondria (saphenous nerve explants); experiment: ATP production in saphenous nerve explants after direct drug application; design: species or system rat; details: 1 μM
Experimental: FIG. 14. […] Mean±SEM, n=6/group *P=0.019 vs, t-test
ATP assays. Saphenous nerves were harvested from rats 25 days after the initiation of chemotherapy treatments, then minced & teased apart as previously described. Saphenous nerve explants were transferred to MiR05 respiratory buffer & baseline ATP samples were taken after 5 min or after 15 min treatment with MRS5980 or vehicle. ADP (1 mM), glutamate (5 mM), succinate (5 mM), […] (5 mM) were added for 5 min & samples were taken for ATP. ATP levels were measured by a flash luciferin-luciferase assay (Promega Enliten ATP Assay; Promega, Madison, Wis.) & normalized to citrate synthase activity (Sigma, St Louis, Mo.) in explants homogenates.

[9] = system: isolated mouse liver mitochondria; experiment: Mitochondrial membrane potential (ΔΨm), TMRM flow cytometry of isolated mitochondria; assay type: biochemical; details: n=1
Experimental: FIG. 12. MRS5980 reduces ADP-dependent dissipation of mitochondrial membrane potential (ΔΨm). ADP (1 mM) in the presence of Complex I and II substrates reduced the ΔΨm in isolated mouse liver mitochondrial (decreased TMRM signal). The degree of dissipation ΔΨm was lessened with MRS5980 (10 μM) treatment prior to adding ADP n=1, 10,000 mitochondria counted/sample.
FIG. 13. MRS5980 reduces calcium-dependent dissipation of mitochondrial ΔΨm. The addition of Ca^2+ (0.5-15 μM) to isolated mouse liver mitochondria reduced the mitochondria ΔΨm in (decreased TMRM signal). The mitochondrial ΔΨιη was sustained with MRS5980 (10 μM) treatment. n=1, 10,000 mitochondria counted/sample.
Mitochondrial membrane potential (ΔΨm). Mitochondria from mouse & rat liver were isolated for flow cytometry as previously described. Mitochondria (57 μg) were loaded with Mitotracker DeepRed FM (50 nM) & TMRM (100 nM). Mitochondria were then treated for 5 min with MRS5980 (10 μM) or vehicle then stimulated with ADP (1 mM) or Ca^2+ (0-15 μM) for 1 min. Mitochondria (10,000 counts) were detected using Mitotracker Deep Red FM (Abs/EM 644/665 nm) signal & the ΔΨm state determined by the dynamic median fluorescence signal of TMRM using a FACSCanto II (BD Biosciences).

mA3AR [10] = molecular target: T6, mA3AR; experiment: Radioligand binding, membranes of HEK293 cells stably expressing mA3AR; details: species m; inhibition of binding at 10 μM

T2 sequence (Q60613 whole entry): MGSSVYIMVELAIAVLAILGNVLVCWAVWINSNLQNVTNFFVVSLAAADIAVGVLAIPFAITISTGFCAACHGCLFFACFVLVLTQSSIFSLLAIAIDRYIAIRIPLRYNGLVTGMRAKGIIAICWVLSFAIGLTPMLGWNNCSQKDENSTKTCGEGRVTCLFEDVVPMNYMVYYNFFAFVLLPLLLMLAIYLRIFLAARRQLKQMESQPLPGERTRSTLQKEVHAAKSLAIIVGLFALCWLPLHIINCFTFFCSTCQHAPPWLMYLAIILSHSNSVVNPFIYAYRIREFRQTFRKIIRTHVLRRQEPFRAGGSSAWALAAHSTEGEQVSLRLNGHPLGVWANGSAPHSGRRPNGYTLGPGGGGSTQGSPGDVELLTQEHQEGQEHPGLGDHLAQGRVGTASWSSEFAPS
T1 sequence (P29274 whole entry): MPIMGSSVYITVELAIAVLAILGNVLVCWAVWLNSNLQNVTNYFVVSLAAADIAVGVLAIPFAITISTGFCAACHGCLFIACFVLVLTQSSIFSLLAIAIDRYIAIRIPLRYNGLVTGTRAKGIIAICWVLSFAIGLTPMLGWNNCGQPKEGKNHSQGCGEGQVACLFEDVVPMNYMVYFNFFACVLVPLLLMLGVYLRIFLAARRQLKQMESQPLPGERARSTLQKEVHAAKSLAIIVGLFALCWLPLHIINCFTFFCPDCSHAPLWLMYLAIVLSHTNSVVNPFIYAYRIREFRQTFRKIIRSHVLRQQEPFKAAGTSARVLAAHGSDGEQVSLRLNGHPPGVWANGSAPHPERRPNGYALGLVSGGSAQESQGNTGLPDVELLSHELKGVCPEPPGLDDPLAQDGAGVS

SMILES	% inhibition A2A (hA2AAR [1])	% inhibition A2A (mA2AAR)	% inhibition A1 (hA1AR [2])	% efficacy (hA3AR)	% inhibition A1 (mA1AR)	further results
CCNc1nc(C#Cc2ccccc2)nc2c1ncn2[C@H]1[C@H](O)[C@H](O)[C@@H]2C[C@@H]21 [Cmpd 9]	(42% ± 4%)	(49% ± 2%)	(36% ± 4%)	0.8 ± 5.2%	(49% ± 6%)	–
O=S(=O)(O)c1ccc(CCNc2nc(C#Cc3ccccc3)nc3c2ncn3[C@H]2[C@H](O)[C@H](O)[C@@H]3C[C@@H]32)cc1 [Cmpd 16]	–	(1% ± 2%)	–	7.2%	(18% ± 2%)	% inhibition A1 (hA1AR [3]): (10% ± 5%); % inhibition A2A (hA2AAR [4]): (15% ± 3%)
CNc1nc(C#Cc2ccccc2)nc2c1ncn2[C@H]1[C@H](O)[C@H](O)[C@@H]2C[C@@H]21 [Cmpd 8]	(18% ± 3%)	(8% ± 3%)	(18% ± 1%)	12.6 ± 4.0%	–	–
CNC(=O)C12CC1C(n1cnc3c(NCCc4ccccc4)nc(C#Cc4ccccc4)nc31)C(O)C2O (centres unmarked) [Cmpd 17]	–	(1% ± 1%)	–	105.3 ± 9.8%	(25% ± 5%)	% efficacy (mA3AR [5]): 114.6 ± 14.6%; % inhibition A1 (hA1AR [3]): (11% ± 3%); % inhibition A2A (hA2AAR [4]): (32% ± 4%)
O[C@@H]1[C@H](O)[C@@H]2C[C@@H]2[C@H]1n1cnc2c(NCCc3ccccc3)nc(C#Cc3ccccc3)nc21 [Cmpd 14]	(22% ± 5%)	(13% ± 2%)	(30% ± 8%)	4.1 ± 1.2%	(39% ± 6%)	–
CNC(=O)C12CC1C(n1cnc3c(NCc4cccc(Cl)c4)nc(C#Cc4ccc(S(=O)(=O)O)cc4)nc31)C(O)C2O (centres unmarked) [Cmpd 6]	–	(14% ± 4%)	–	98.6 ± 5.7%	–	% efficacy (mA3AR [5]): 95.7 ± 19.1%; % inhibition A2A (hA2AAR [4]): (23% ± 3%)
CNC(=O)C12CC1C(n1cnc3c(NCc4cccc(Cl)c4)nc(C#Cc4cccc(S(=O)(=O)O)c4)nc31)C(O)C2O (centres unmarked) [Cmpd 7]	–	(1% ± 1%)	–	98.2 ± 6.7%	(15% ± 2%)	% efficacy (mA3AR [5]): 89.3 ± 7.1%; % inhibition A1 (hA1AR [3]): (16% ± 3%); % inhibition A2A (hA2AAR [4]): (7% ± 6%)
O[C@@H]1[C@H](O)[C@@H]2C[C@@H]2[C@H]1n1cnc2c(NCc3cccc(Cl)c3)nc(C#Cc3ccc(-c4ccccc4)cc3)nc21 [Cmpd 13]	(12% ± 7%)	(0%)	(48% ± 4%)	3.5 ± 3.2%	–	–
CNC(=O)[C@@]12C[C@@H]1[C@@H](n1cnc3c(NCc4cccc(Cl)c4)nc(C#Cc4ccccc4)nc31)[C@H](O)[C@@H]2O [Cmpd 5]	(27% ± 3%)	(2% ± 1%)	(20% ± 3%)	101 ± 5.9%	(50% ± 5%	–
O=C1[O][Pt]2([NH][C@@H]3CCCC[C@H]3[NH]2)[O]C1=O [oxaliplatin, reference compound]	–	–	–	–	–	Incidence of IENFs vs. Naive rats [6]: statistically significantly fewer IENFs; Mechano-hypersensitivity (Paw Withdrawal Threshold) [7]: produces mechano-hypersensitivity
O[C@@H]1[C@H](O)[C@@H]2C[C@@H]2[C@H]1n1cnc2c(NCc3cccc(Cl)c3)nc(C#Cc3ccccc3)nc21 [Cmpd 11]	–	–	(37% ± 4%)	13.8 ± 5.1%	–	–
CNC(=O)[C@@]12C[C@@H]1[C@@H](n1cnc3c(NC)nc(C#Cc4ccc(Cl)s4)nc31)[C@H](O)[C@@H]2O [MRS5980]	–	–	–	–	–	ATP production following stimulation of Complex I and II ([8]; explants from oxaliplatin-treated rats, day 25): reverses oxaliplatin-induced deficiencies in ATP production; ATP production following stimulation of Complex I and II ([8]; explants from vehicle-treated rats): modestly enhanced ATP production; ADP-dependent dissipation of mitochondrial membrane potential (ΔΨm) ([9]; 10 μM prior to ADP (1 mM)): lessened; Calcium-dependent dissipation of mitochondrial ΔΨm ([9]; 10 μM, Ca2+ 0.5-15 μM): sustained
O[C@@H]1[C@H](O)[C@@H]2C[C@@H]2[C@H]1n1cnc2c(NCc3cccc(Cl)c3)nc(C#Cc3cccc(Cl)c3)nc21 [Cmpd 12]	–	–	–	4.5 ± 4.9%	–	–
CCNc1nc(C#Cc2ccccc2Cl)nc2c1ncn2[C@H]1[C@H](O)[C@H](O)[C@@H]2C[C@@H]21 [Cmpd 10]	(17% ± 6%)	(11% ± 1%)	(25% ± 11%)	7.0 ± 5.2%	(47% ± 8%)	% inhibition A3 (mA3AR [10]): (50% ± 9%)
O[C@@H]1[C@H](O)[C@@H]2C[C@@H]2[C@H]1n1cnc2c(NCC(c3ccccc3)c3ccccc3)nc(C#Cc3ccccc3Cl)nc21 [Cmpd 15]	(22% ± 2%)	(16% ± %)	(26% ± 4%)	2.6 ± 1.3%	(23% ± 1%)	% inhibition A3 (mA3AR [10]): (54 ± 3%)
